{"source": "patent US20090036384A1", "about": "“INCREASING PREGNANCY RATES” (PARNELL LABORATORIES (AUST) PTY LIMITED, priority 2005, published 2009)", "key": {"[1]": {"system": "LH", "conditions": "in vivo; cited from earlier work"}, "[2]": {"system": "cows", "conditions": "cited from earlier work"}, "[3]": {"system": "LH", "conditions": "exogenous GnRH; cited from earlier work"}, "[4]": {"conditions": "literature study; cited from earlier work"}, "[5]": {"test": "Progesterone solubility and precipitation at low temperature (2-8° C.)", "type": "physicochemical", "conditions": "solubility study; most appropriate combination", "method": "Since addition of acids reduced the amount of NMP available for dissolution of Progesterone, samples prepared with different acids were refrigerated at 2-8° C. to investigate progesterone solubility and the occurrence of precipitation at low temperatures. The appearance of crystals in samples prepared with formic and hydrochloric acid was obvious after several hours of refrigeration. Crystals appeared after 1-2 days in samples prepared with phosphoric acid. FTIR testing confirmed that the precipitate was crystalline progesterone, which was difficult to redissolve due to the crystalline form of the precipitate. At this stage a further search for vehicle that would provide sufficient progesterone solubility at low temperatures was conducted. […] A solubility study confirmed that the most appropriate combination was NMP+water+phosphoric acid with progesterone amount not exceeding 8-10% w/v."}, "[6]": {"system": "cows", "conditions": "cited from earlier work", "remark": "listed apart in the source"}, "[7]": {"test": "Progesterone solubility trials", "type": "physicochemical", "method": "The purpose of the formulation studies was to establish a product vehicle that was suitable for solubilisation of a relatively high concentration of Progesterone but in which Gonadorelin would be stable. […] Low solubility of Progesterone (even in organic solvents) further limited the choice of injectable organic vehicles.\nFurther Solubility Trials were conducted as follows: […]"}}, "note": "Like-named read-outs stand apart in the source and are kept apart here.", "data": [{"smiles": "C[C@]12CC[C@@H]3c4ccc(O)cc4CC[C@H]3[C@@H]1CC[C@@H]2OC(=O)CCC1CCCC1", "note": "[ECP, Estradiol Cypionate]", "values": [{"measurement": "time of LH surge after administration", "setting": "[1]", "value": "around 40 hours"}]}, {"smiles": "CC(C)C[C@H](NC(=O)CNC(=O)[C@H](Cc1ccc(O)cc1)NC(=O)[C@H](CO)NC(=O)[C@H](Cc1c[nH]c2ccccc12)NC(=O)[C@H](Cc1cnc[nH]1)NC(=O)[C@@H]1CCC(=O)N1)C(=O)N[C@@H](CCCNC(=N)N)C(=O)N1CCC[C@H]1C(=O)NCC(N)=O", "note": "[GnRH]", "values": [{"measurement": "ovulation rate", "setting": "[2]; 25 μg of GnRH", "value": "dramatic reduction in ovulation rates"}, {"measurement": "ovulation rate", "setting": "[2]; 50 μg of GnRH", "value": "identical ovulation rate to 100 μg"}, {"measurement": "duration of GnRH-induced LH surge", "setting": "[3]", "value": "7 to 14", "unit": "h"}, {"measurement": "peak serum levels of LH", "setting": "[3]", "value": "9 to 22", "unit": "ng/mL"}]}, {"smiles": "CN1CCCC1=O", "note": "[NMP, N-methyl-2-pyrrolidone]", "values": [{"measurement": "pH of NMP", "setting": "[4]", "value": "approximately 11.5"}]}, {"smiles": "CC(=O)[C@H]1CC[C@H]2[C@@H]3CCC4=CC(=O)CC[C@]4(C)[C@H]3CC[C@]12C", "note": "[Progesterone]", "values": [{"measurement": "progesterone amount in NMP+water+phosphoric acid", "setting": "[5]", "value": "8-10 % w/v"}, {"measurement": "average serum progesterone levels", "setting": "[6]; beef cows primed via a used CIDR implant", "value": 1.5, "unit": "ng/mL"}, {"measurement": "serum Progesterone levels that provide effective biological activity", "setting": "[6]; in vivo", "value": "1-3 ng/mL"}, {"measurement": "follicle size", "setting": "[6]; three days of progesterone treatment", "value": 13.7, "unit": "mm"}, {"measurement": "Solubility of Progesterone", "setting": "[7]; pure solvent PEG400", "value": "marginal"}, {"measurement": "Solubility of Progesterone", "setting": "[7]; pure solvent Propylene Glycol", "value": "marginal"}, {"measurement": "Solubility of Progesterone", "setting": "[7]; pure solvent Tetraglycol", "value": "marginal"}]}]}
